Data as given in US8080252B2, “Compounds and methods of modulating angiogenesis” (The Cleveland Clinic Foundation, priority 2006, dated 2011).
Like-named read-outs stand apart in the source and are kept apart here. Non-standard residues stand in square brackets, D forms with d. No end group written: not given here. pY = N[C@@H](Cc1ccc(OP(=O)(O)O)cc1)C(=O)O

Legend:
[1] = tested on: cells expressing αvβ3 integrin and VEGFR2; test: Angiogenesis of cells expressing αvβ3 integrin and VEGFR2 with stimulating peptides; assay type: cell-based; conditions: both in the presence and the absence of VEGF
αvβ3 integrin [2] = test: WOW-1 binding assay, WT and DiYF mouse lung endothelial cells (FACS); assay type: cell-based; conditions: 20 ng/ml VEGF or 1 mM MnCl2
Description: Wild type and DiYF mouse lung endothelial cells were serum starved for 4 h and further stimulated with 20 ng/ml VEGF-165, 20 ng/ml b-FGF or 1 mm MnCl2 separately. WoW-1 Fab was added at a final concentration of […], followed by addition of Fluorescein isothiocyanate (FITC) conjugated goat anti-mouse IgG at 10 μg/ml. After 30 min cells were fixed with 3.7% formaldehyde/PBS for 15 min, washed twice with 1×PBS and FACS was performed using a FACS Calibur (Becton Dickinson, San Jose, Calif.) instrument and data were analyzed using CellQuest software program.

[3] = tested on: HUVECs (Human Umbilical vascular endothelial cells); conditions: HUVECs on Matrigel, 8 h
Description: The tube formation was observed using an inverted phase contrast microscope (Leica) and photographs were taken from each well. Using ImagePro software, the degree of tube formation was quantified by measuring the length of tubes in random fields.

[4] = tested on: mouse lung endothelial cells; conditions: WT EC
Description: Transwell tissue culture inserts were coated with various integrin ligands for 24 h at 4° C. Both WT and DiYF lung endothelial cells were trypsinized and 1×10^5 cells were added into each well. The lower chamber contained varying concentrations of VEGF-A165 (0-20 ng/ml). Cells were allowed to migrate for 12 h and fixed with 3.7% formaldehyde/PBS for 15 min and stained with 0.5% crystal violet. The non-migrated cells adhered to the top surface were removed and three random 10× fields were photographed using Leica inverted phase contrast microscope.

αvβ3 integrin [5] = test: Fibrinogen binding assay, WT and DiYF mouse lung endothelial cells (FACS); assay type: cell-based; conditions: 20 ng/ml VEGF or 1 mM MnCl2
Description: To assess fibrinogen binding, semiconfluent wild type and DiYF mouse lung endothelial cells were serum starved for 4 h and further induced with 20 ng/ml VEGF-165, 20 ng/ml b-FGF or 1 mm MnCl2. Fluorescein isothiocyanate (FITC)-labeled fibrinogen was added at a final concentration of 200 nM for 45 min. […] Fluorescence-activated cell sorting (FACS) was performed using a FACS Calibur (Becton Dickinson, San Jose, Calif.) and data were analyzed using CellQuest software program.

VEGFR-2 = molecular target: T1, VEGFR-2 (Mus musculus, UniProt P35918); test: VEGFR-2 phosphorylation time course in WT and DiYF mouse endothelial cells; assay type: cell-based; conditions: 20 ng/ml VEGF
T1 construct: Serum starved wild type and DiYF endothelial cells were also treated with 20 ng/ml VEGF for 0-60 mins; endogenous in cells; host or cells: primary mouse lung endothelial cells (WT and DiYF knock-in, C57/Bl6)
Description: Serum starved wild type and DiYF endothelial cells were also treated with 20 ng/ml VEGF for 0-60 mins. Cell lysates were analyzed by Western blot using anti-integrin β3 [pY^747], anti-integrin [pY^759], anti-p-VEGFR-2, anti-VEGFR-2, anti-p-ERK1/2, anti-ERK1/2, anti-p-Akt, anti-Akt, anti-p-P38MAPK and anti-MAPK antibody. The wild type and DiYF endothelial cells were lysed and equal proteins from total cell lysates were subjected SDS-PAGS and analyzed by western blot using anti-VEGFR-2 and anti-CD-31 antibody.

αvβ3 integrin [6] = molecular target: T2, αvβ3 integrin (Homo sapiens, UniProt P05106+P06756); test: WOW-1 binding assay in HUVECs (αvβ3 integrin activation, FACS); assay type: cell-based; conditions: 20 ng/mL
T2 construct: Semiconfluent HUVECs were serum starved for 4 h and further stimulated with 20 ng/mL VEGF-A165 or VEGFDΔNΔC; endogenous in cells; host or cells: HUVEC
Description: Semiconfluent HUVECs were serum starved for 4 h and further stimulated with 20 ng/mL VEGF-A165 or VEGFDΔNΔC. WOW-1 Fab was added to a final concentration of 30 μg/mL, followed by addition of FITC-conjugated goat anti-mouse IgG at 10 μg/mL. After 30 min cells were fixed with 3.7% formaldehyde in PBS for 15 min, washed twice with PBS, and fluorescence-activated cell sorting (FACS) was performed using a FACS Calibur (Becton Dickinson, San Jose, Calif.) and data were analyzed using CellQuest software.
Semiconfluent HUVECs were transfected with various forms of c-Src or Src++. SYF, SYF+Src cells were serum starved for 4 h and further stimulated with 20 ng/mL VEGF-A165 or b-FGF. WOW-1 Fab was added at a final concentration of 30 μg/mL, followed by addition of FITC-conjugated goat anti-mouse IgG at 10 μg/mL. After 30 min cells were fixed with 3.7% formaldehyde/PBS for 15 min, washed twice with PBS, and FACS analysis was performed as described above.

[7] = tested on: mouse lung microvascular endothelial cells
Description: (§1) To assess the role of Src-mediated β3 integrin tyrosine phosphorylation in αvβ3 integrin dependent EC migration, HUVECs transfected with various forms of Src were evaluated in migration assays using VEGF as an agonist and vitronectin as a substrate. […] To further evaluate the c-Src mediated β3 integrin cytoplasmic tyrosine motifs phosphorylation in αvβ3 integrin dependent endothelial cell migration, wild type and DiYF mouse lung microvascular endothelial cells were transfected with wild type, dominant negative and catalytically active form of c-Src and stimulated with VEGF (FIG. 23 B).
(§2) Transwell tissue culture inserts were coated with αvβ3 integrin ligand vitronectin for 24 h at 4° C. Endothelial cells were transfected with various forms of c-Src or treated with inhibitors and were trypsinized; then 1×10^5 cells were added into each well. Cells were allowed to migrate for 12 h and fixed with 70% methanol for 15 min and stained with Giemsa. The non-migrated cells adhered to the top surface were removed and three random 10× fields were photographed using an inverted phase contrast microscopy.

[8] = tested on: mouse lung endothelial cells; conditions: 20 ng/ml VEGF, 8 h
Description: The formation of vascular tube-like structures by wild type and DiYF mouse lung endothelial cells were assessed on the basement membrane matrix preparation. Six well plates were coated with 0.5 ml of Matrigel according to the manufacturer's instructions. Wild type and DiYF mouse lung endothelial cells were detached from the tissue culture flasks using 20 mM EDTA. Cells were washed twice with sterile 1×PBS and seeded on Matrigel coated plate. Medium was supplemented with or without 20 ng/ml VEGF and further incubated at 37° C. for 8 h. The tube formation was observed using an inverted phase contrast microscope (Leica) and photographs were taken from each well. Using ImagePro software, the degree of tube formation was quantified by measuring the length of tubes in random fields.

HUVECs = test: Cell migration assay of HUVECs on vitronectin, VEGF as agonist (Example 5); assay type: cell-based, Human; conditions: vitronectin as substrate
Description: as §1, §2

β3 integrin = β3 integrin tyrosine phosphorylation (Tyr-747 and 759) in HUVECs, Western blot; assay type: cell-based, Human; conditions: serum starved HUVECs, 400 nm and 800 nm SU1498
Description: αvβ3 integrin is expressed on proliferating endothelial cells during angiogenesis and vascular remodeling and the blockade of αvβ3 integrin suppressed angiogenesis in several in vivo models. Therefore, we assessed whether the blockade of αvβ3 affected tyrosine phosphorylation of β3 subunit. […] Cells were also treated with non-immune IgG as control. These cells were washed and further induced with VEGF for 5 min at 37° C. Cell lysates were analyzed for phosphorylation of β3 integrin (Tyr-747 and 759). […] Basal level of β3 integrin tyrosine phosphorylation remains unaffected irrespective of different blocking antibody treatment. To further examine consequences of αvβ3 integrin blocking antibodies, cell lysates were analyzed for tyrosine phosphorylation of VEGFR-2 (Tyr-1175).
Cytoplasmic domains of integrin β subunits are highly conserved and represents region of structural homology between the various groups. […] Cell lysates were analyzed for the phosphorylation of β3 integrin. […]
Cells were lysed in immunoprecipitation lysis buffer (1% Noniodet P-40, 150 mM NaCl, 50 mM Tris-HCL (pH 7.8), 2 mM EDTA, 10 mM NaF, 10 mM Na2P2O7, 2 mM Na3VO4 10 μg/mL leupeptin, 4 μg/mL pepstatin and 0.1 U/mL aprotinin). […] Bands were analyzed by densitomeric analysis using Kodak 1D software and fold changes were indicated.

T1 sequence (P35918 20-1345): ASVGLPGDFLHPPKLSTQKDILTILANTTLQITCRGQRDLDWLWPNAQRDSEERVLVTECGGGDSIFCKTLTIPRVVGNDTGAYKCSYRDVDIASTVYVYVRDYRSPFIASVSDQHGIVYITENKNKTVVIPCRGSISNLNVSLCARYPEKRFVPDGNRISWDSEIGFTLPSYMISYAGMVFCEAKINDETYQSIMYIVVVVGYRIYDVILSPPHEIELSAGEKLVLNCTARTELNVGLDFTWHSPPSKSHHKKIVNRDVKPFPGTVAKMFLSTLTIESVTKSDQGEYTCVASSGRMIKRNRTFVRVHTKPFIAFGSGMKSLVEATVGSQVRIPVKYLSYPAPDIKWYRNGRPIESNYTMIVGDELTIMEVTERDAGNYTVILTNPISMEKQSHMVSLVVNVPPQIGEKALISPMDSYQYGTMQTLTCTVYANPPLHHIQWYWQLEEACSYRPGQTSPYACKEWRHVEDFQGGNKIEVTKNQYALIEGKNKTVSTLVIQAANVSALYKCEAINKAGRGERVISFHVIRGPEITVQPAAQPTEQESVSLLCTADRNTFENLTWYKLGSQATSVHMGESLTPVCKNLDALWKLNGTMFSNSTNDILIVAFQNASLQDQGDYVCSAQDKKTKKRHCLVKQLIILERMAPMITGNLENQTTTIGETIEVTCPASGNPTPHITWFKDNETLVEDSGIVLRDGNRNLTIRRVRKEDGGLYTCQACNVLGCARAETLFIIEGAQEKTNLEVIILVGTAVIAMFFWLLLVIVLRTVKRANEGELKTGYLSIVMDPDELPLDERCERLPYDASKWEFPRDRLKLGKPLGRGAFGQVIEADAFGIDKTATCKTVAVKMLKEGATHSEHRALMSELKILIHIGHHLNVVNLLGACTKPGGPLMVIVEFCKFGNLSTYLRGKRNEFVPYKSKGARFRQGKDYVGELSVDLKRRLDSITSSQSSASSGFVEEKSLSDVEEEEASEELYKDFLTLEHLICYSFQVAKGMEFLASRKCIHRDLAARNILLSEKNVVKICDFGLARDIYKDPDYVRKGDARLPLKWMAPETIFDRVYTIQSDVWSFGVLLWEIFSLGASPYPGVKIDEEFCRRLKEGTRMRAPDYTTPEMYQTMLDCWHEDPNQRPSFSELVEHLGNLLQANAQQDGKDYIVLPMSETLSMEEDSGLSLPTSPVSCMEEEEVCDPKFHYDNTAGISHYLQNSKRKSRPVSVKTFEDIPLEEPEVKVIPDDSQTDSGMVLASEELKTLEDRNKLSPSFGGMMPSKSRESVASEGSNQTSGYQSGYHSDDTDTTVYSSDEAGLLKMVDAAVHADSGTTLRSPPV
T2 sequence (P06756 31-1048): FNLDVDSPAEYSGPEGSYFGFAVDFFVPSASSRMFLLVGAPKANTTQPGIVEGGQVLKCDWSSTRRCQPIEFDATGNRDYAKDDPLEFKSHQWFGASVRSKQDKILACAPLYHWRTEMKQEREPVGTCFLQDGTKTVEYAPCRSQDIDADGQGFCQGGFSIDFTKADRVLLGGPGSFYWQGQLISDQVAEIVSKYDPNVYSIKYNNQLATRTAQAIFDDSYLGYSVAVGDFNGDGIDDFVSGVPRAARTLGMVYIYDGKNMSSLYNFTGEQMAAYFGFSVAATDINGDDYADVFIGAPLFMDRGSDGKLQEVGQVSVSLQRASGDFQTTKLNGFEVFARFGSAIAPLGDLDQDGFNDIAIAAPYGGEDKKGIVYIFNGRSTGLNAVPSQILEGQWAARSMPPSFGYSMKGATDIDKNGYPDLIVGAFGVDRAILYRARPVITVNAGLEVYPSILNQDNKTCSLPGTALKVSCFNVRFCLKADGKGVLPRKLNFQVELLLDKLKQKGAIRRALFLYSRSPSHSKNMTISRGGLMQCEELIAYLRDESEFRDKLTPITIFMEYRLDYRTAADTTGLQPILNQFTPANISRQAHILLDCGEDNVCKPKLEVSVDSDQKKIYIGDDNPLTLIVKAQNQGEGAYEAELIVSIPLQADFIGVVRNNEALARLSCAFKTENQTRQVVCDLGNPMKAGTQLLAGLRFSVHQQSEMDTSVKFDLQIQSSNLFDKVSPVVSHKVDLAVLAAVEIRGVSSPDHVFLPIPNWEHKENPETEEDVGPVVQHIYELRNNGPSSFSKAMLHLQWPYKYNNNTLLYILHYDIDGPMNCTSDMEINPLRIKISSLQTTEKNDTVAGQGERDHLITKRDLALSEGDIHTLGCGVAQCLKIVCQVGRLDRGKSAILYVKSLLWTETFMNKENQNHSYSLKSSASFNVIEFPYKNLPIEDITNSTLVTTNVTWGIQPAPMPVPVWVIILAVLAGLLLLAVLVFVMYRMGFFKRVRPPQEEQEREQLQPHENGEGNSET
T2 sequence (P05106 27-788): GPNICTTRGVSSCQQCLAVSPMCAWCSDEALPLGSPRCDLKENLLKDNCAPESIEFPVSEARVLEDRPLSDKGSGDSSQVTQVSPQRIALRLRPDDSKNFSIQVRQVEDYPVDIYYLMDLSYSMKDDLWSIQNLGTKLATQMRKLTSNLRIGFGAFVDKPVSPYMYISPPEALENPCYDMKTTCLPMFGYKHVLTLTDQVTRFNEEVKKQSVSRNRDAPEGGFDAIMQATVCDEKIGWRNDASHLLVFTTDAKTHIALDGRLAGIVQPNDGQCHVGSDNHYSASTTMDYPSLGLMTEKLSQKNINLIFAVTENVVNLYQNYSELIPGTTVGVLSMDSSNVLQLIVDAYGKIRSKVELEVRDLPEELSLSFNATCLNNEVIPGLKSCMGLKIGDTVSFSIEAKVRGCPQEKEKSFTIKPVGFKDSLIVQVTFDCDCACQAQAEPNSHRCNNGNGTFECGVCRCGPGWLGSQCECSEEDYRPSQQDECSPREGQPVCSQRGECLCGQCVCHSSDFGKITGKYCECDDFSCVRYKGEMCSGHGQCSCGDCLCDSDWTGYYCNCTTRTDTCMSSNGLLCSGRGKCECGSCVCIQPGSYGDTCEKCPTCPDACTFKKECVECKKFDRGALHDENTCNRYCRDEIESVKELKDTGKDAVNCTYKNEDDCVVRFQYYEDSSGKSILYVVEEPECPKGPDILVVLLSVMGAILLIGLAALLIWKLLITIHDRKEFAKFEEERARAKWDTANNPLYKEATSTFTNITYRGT

In the case of “YGRKKRRQRRRGKEATSTFTNITYpRGT-COOH (YGRKKRRQRRRGKEATSTFTNIT[pY]RGT-OH; N-terminus assumed; SMILES CC[C@H](C)[C@H](NC(=O)[C@H](CC(N)=O)NC(=O)[C@@H](NC(=O)[C@H](Cc1ccccc1)NC(=O)[C@@H](NC(=O)[C@H](CO)NC(=O)[C@@H](NC(=O)[C@H](C)NC(=O)[C@H](CCC(=O)O)NC(=O)[C@H](CCCCN)NC(=O)CNC(=O)[C@H](CCCNC(=N)N)NC(=O)[C@H](CCCNC(=N)N)NC(=O)[C@H](CCCNC(=N)N)NC(=O)[C@H](CCC(N)=O)NC(=O)[C@H](CCCNC(=N)N)NC(=O)[C@H](CCCNC(=N)N)NC(=O)[C@H](CCCCN)NC(=O)[C@H](CCCCN)NC(=O)[C@H](CCCNC(=N)N)NC(=O)CNC(=O)[C@@H](N)Cc1ccc(O)cc1)[C@@H](C)O)[C@@H](C)O)[C@@H](C)O)C(=O)N[C@H](C(=O)N[C@@H](Cc1ccc(OP(=O)(O)O)cc1)C(=O)N[C@@H](CCCNC(=N)N)C(=O)NCC(=O)N[C@H](C(=O)O)[C@@H](C)O)[C@@H](C)O; listed as Homo sapiens) [SEQ ID NO: 13, stimulating peptide]”, the effect on angiogenesis [1] is reported as “promote angiogenesis”.

VEGF was tested, and the “increase in WOW-1 binding” value (αvβ3 integrin [2]; DiYF EC) was 3.5 fold, the “increase in WOW-1 binding” value (αvβ3 integrin [2]; WT EC) was 9 fold and the “endothelial cell tube formation induced” value [3] was “at least 450 μm/mm^2”. For the same compound, the “increase of migration compared to untreated EC” value (“increase of migration” for short) ([4]; VEGF 5 ng/ml) was 1.5 fold, the “increase of migration” value ([4]; VEGF 10 ng/ml) was 2.5 fold and the “increase of migration” value ([4]; VEGF 20 ng/ml) was 2.9 fold. For the same compound, the “increase of fibrinogen binding” value (αvβ3 integrin [5]; DiYF EC) was 3 fold, the “increase of fibrinogen binding” value (αvβ3 integrin [5]; WT EC) was “at least 6 fold” and the “maximum increase in VEGFR-2 phosphorylation over control” value (VEGFR-2; DiYF EC) was 2.5 fold. The “maximum increase in VEGFR-2 phosphorylation over control” value (VEGFR-2; WT EC) was 6 fold, the “increase of WOW-1 binding to EC compared to resting cells” value (αvβ3 integrin [6]) was 6 fold and the “increase in endothelial cell migration” value ([7]; CA-Src transfected wild type endothelial cells) was 3.5 fold. For the same compound, the “increase in endothelial cell migration” value ([7]; WT-Src transfected wild type endothelial cells) was 2.5 fold, the “effect on the length of the tubes” value ([8]; DiYF EC) was “little effect” and the “increase in the length of the tubes” value ([8]; WT EC) was “about 3 fold”.

For `CC(C)c1cc(/C=C(\C#N)C(=O)NCCCc2ccccc2)cc(C(C)C)c1O` [SU1498], the “effect on EC migration triggered by VEGF” value (HUVECs) was “reduced EC migration triggered by VEGF” and the “effect on VEGF induced β3 integrin cytoplasmic tyrosine residue phosphorylation” value (β3 integrin) was “significantly reduced”.

In the case of `[Cl][Mn][Cl]` [MnCl2, reference compound], the “increase in WOW-1 binding” value (αvβ3 integrin [2]; DiYF EC) is reported as 14 fold, the “increase in WOW-1 binding” value (αvβ3 integrin [2]; WT EC) is reported as 30 fold and the “increase of fibrinogen binding” value (αvβ3 integrin [5]; DiYF EC) is reported as 17 fold. The “increase of fibrinogen binding” value (αvβ3 integrin [5]; WT EC) was “at least 40 fold”.

In the case of “KEATSTFTNITYpRGT-COOH (KEATSTFTNIT[pY]RGT-OH; N-terminus assumed; SMILES CC[C@H](C)[C@H](NC(=O)[C@H](CC(N)=O)NC(=O)[C@@H](NC(=O)[C@H](Cc1ccccc1)NC(=O)[C@@H](NC(=O)[C@H](CO)NC(=O)[C@@H](NC(=O)[C@H](C)NC(=O)[C@H](CCC(=O)O)NC(=O)[C@@H](N)CCCCN)[C@@H](C)O)[C@@H](C)O)[C@@H](C)O)C(=O)N[C@H](C(=O)N[C@@H](Cc1ccc(OP(=O)(O)O)cc1)C(=O)N[C@@H](CCCNC(=N)N)C(=O)NCC(=O)N[C@H](C(=O)O)[C@@H](C)O)[C@@H](C)O; listed as Homo sapiens) [SEQ ID NO: 15, stimulating peptide; β3 integrin cytoplasmic peptide specific for tyrosine-759]”, the effect on angiogenesis [1] is reported as “promote angiogenesis”.
